Reference: article PMC7745062 (Acta Pharmaceutica Sinica. B, 2020)
“Also recorded” adds a separate entry of the source.

Assays:
[1] = Metabolic stability in rat liver microsomes; type: in vitro ADME; settings: for half-life at 0.1 μmol/L: rat, pH 7.4
[2] = system: monocrotaline (MCT)-induced PAH rat model; experiment: Monocrotaline; type: in vivo; settings: for mean pulmonary artery pressure (mPAP) / right ventricle hypertrophy index (RVHI%) / wall thickness percentage (WT%): p.o. for 3 weeks, 14·3HCl 2.5 mg/kg, tadalafil 5.0 mg/kg, vs model group
[3] = target: PDE2A (580–919) (Homo sapiens, UniProt O00408); experiment: In vitro enzymatic activity assay, PDE2A
Sequence of PDE2A (580–919) (O00408 580-919): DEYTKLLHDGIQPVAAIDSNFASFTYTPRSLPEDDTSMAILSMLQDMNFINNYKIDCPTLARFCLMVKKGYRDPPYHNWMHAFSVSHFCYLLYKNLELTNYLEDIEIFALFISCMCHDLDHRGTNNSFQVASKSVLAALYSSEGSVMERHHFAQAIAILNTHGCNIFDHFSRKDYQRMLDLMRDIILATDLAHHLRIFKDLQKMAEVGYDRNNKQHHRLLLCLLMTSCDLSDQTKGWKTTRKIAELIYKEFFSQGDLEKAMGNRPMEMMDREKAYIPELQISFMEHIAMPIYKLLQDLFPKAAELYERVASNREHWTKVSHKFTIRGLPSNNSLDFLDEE

[4] = target: PDE5A1 (535–860) (Homo sapiens, UniProt O76074); experiment: In vitro enzymatic activity assay, PDE5A1
[5] = target: PDE7A1 (130–482) (Homo sapiens, UniProt Q13946); experiment: In vitro enzymatic activity assay, PDE7A1
Sequence of PDE7A1 (130–482) (Q13946 130-482): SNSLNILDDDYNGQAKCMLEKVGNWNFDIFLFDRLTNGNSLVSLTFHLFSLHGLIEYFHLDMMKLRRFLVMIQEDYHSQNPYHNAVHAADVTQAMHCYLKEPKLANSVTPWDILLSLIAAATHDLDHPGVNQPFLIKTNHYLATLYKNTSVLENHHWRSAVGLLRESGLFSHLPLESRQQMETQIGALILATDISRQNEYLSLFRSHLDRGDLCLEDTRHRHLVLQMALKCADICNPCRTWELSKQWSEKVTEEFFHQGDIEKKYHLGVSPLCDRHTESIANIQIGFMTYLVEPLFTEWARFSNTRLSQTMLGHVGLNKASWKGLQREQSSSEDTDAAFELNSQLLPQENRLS

[6] = target: PDE1B (10–487) (Homo sapiens, UniProt Q01064); experiment: In vitro enzymatic activity assay, PDE1B
Sequence of PDE1B (10–487) (Q01064 10-487): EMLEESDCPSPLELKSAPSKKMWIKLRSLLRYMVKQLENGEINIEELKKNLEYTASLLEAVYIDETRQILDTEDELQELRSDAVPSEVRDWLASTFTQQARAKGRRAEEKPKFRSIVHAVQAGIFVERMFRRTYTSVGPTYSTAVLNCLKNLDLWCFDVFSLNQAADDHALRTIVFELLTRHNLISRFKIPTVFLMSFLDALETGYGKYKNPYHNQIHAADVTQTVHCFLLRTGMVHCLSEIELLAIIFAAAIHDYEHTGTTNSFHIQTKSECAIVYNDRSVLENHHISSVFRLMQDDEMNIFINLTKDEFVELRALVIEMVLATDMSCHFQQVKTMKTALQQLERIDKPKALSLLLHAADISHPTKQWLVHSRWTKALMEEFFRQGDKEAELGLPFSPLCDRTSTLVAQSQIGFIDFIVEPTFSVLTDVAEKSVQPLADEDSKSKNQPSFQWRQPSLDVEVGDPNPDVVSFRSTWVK

[7] = target: hERG potassium channel (versus PDE10A) (Homo sapiens, UniProt Q12809); experiment: in vitro
[8] = target: PDE10A (449–770) (Homo sapiens, UniProt Q9Y233); experiment: In vitro enzymatic activity assay
Sequence of PDE10A (449–770) (Q9Y233 715-1036): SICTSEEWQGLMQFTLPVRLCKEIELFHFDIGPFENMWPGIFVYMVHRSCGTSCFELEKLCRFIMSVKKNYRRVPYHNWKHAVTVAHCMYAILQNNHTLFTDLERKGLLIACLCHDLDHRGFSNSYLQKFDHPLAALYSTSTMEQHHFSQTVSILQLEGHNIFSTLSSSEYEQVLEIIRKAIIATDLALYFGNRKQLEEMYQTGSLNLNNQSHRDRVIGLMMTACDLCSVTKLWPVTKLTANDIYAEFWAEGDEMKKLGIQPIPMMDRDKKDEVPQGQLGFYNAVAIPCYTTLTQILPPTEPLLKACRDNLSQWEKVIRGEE

[9] = target: PDE9A2 (181–506) (Homo sapiens, UniProt O76083); experiment: In vitro enzymatic activity assay, PDE9A2
Sequence of PDE9A2 (181–506) (O76083 241-566): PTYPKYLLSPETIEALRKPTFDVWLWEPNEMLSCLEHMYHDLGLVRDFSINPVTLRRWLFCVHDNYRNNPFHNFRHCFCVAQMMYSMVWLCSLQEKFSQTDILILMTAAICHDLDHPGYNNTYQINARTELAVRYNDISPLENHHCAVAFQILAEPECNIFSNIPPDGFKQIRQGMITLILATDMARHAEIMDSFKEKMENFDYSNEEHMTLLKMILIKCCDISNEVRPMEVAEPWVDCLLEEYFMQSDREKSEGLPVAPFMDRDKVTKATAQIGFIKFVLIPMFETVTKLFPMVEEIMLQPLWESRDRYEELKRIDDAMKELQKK

[10] = target: PDE3A (679–1087) (Homo sapiens, UniProt Q14432); experiment: In vitro enzymatic activity assay, PDE3A
Sequence of PDE3A (679–1087) (Q14432 679-1087): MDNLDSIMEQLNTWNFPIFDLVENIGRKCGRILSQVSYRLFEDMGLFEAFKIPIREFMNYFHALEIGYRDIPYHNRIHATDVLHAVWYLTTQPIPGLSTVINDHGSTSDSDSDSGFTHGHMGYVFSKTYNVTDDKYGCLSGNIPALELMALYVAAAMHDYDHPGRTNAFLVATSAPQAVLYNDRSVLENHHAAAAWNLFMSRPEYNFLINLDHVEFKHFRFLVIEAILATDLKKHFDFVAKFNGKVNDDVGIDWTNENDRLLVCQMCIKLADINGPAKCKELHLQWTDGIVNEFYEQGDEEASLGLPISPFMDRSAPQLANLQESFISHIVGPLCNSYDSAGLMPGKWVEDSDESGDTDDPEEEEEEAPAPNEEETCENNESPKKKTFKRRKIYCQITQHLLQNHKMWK

[11] = Reactivity with cysteine in aqueous phase; type: physicochemical; settings: Cys ratio 1:1, 1H NMR in D2O against time
[12] = system: KM mice; experiment: Acute toxicity after single oral dose in mice; type: in vivo
[13] = target: PDE8A1 (480–820) (Homo sapiens, UniProt O60658); experiment: In vitro enzymatic activity assay, PDE8A1
Sequence of PDE8A1 (480–820) (O60658 480-820): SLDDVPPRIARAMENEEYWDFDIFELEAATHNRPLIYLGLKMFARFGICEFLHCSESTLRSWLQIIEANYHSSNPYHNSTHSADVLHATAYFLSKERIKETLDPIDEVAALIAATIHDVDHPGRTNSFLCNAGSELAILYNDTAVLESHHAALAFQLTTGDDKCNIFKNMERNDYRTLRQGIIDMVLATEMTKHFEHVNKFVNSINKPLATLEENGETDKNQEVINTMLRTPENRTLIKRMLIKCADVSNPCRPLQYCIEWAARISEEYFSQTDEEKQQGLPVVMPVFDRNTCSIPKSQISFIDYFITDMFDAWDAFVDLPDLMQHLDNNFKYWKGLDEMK

[14] = target: PDE4D2 (86–413) (Homo sapiens, UniProt Q08499); experiment: In vitro enzymatic activity assay, PDE4D2
Sequence of PDE4D2 (86–413) (Q08499 388-715): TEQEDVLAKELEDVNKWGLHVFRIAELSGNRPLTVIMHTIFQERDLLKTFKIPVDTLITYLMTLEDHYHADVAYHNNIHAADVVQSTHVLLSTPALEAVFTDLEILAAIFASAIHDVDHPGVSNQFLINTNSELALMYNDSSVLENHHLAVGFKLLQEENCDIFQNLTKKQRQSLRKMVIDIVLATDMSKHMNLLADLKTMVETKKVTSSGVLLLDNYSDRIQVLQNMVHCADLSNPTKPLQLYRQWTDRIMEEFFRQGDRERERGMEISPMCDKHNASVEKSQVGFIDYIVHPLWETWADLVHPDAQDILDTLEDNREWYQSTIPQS

[15] = In vivo pharmacokinetics of 14·3HCl in rats; set-up: species or system Sprague–Dawley rats
[16] = target: T1, human ether-à-go-go-related gene (hERG) potassium channel (Homo sapiens, UniProt Q12809)
T1 sequence (Q12809 whole entry): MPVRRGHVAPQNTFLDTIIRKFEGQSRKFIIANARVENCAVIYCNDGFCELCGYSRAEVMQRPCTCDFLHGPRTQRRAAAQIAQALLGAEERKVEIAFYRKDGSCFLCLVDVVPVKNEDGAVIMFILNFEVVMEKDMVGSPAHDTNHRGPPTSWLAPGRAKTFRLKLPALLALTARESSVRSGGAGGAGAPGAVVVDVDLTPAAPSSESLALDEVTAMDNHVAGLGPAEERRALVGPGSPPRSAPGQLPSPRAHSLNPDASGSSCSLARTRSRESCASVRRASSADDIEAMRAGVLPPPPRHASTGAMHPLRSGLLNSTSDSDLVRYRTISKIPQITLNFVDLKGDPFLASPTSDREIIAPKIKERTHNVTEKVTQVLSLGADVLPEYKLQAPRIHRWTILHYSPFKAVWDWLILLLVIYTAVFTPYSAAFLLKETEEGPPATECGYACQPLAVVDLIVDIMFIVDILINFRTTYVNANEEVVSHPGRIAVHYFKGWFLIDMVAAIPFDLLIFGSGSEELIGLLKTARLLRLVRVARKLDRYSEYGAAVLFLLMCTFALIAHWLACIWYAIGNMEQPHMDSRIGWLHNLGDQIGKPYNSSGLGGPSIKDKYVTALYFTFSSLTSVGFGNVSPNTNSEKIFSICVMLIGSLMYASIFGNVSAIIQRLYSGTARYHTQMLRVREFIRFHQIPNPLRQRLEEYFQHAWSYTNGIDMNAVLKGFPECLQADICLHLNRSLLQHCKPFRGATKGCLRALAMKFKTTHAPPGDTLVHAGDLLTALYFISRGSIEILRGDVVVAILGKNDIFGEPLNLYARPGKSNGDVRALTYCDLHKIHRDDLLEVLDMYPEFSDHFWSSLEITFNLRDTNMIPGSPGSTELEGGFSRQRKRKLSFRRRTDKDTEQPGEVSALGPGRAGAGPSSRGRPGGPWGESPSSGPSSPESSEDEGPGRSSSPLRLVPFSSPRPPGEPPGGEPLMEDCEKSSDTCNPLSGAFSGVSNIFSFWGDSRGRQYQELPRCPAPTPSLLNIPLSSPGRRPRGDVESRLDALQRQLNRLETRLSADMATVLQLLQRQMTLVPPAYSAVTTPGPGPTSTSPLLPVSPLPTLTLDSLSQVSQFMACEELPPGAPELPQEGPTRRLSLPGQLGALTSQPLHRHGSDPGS

[17] = target: T1, human ether-à-go-go-related gene (hERG) potassium channel; experiment: cell-based; settings: hERG IC50, peak tail current inhibition, 2−3 cells per concentration
[18] = Solubility in deionized water; type: physicochemical; settings: pH 7, water
[19] = Metabolic stability in rat liver microsomes; type: in vitro ADME; settings: RLM t1/2 (elimination half-life)
[20] = male, Sprague-Dawley, rat, plasma, iv, 2.5 mg/kg
[21] = male, Sprague-Dawley, rat, plasma, po, 10 mg/kg

Which “CLint (intrinsic body clearance)” value [1] does the source give for COc1cccc(-n2c(/C=C/c3cccc4cccnc34)nc3cc(C)ccc32)c1 [Compound 10, (E)-8-(2-(1-(3-Methoxyphenyl)-5-methyl-1H-benzo[d]imidazole-2-yl)vinyl)quinoline] here?
Its value is 999.4 mL/(min·g·protein).

And the half-life at 0.1 μmol/L [1]?
The half-life at 0.1 μmol/L was 2.1 min.

Which “CLint (intrinsic body clearance)” value [1] does the source give for Cc1ccc2c(c1)nc(/C=C/c1cccc3cccnc13)n2-c1cccc(OCCCN2CCOCC2)c1.Cl [13·3HCl, (E)-4-(3-(3-(5-Methyl-2-(2-(quinolin-8-yl)vinyl)-1H-benzo[d]imidazole-1-yl)phenoxy)propyl)morpholine hydrochloride] here?
Its value is 127.7 mL/(min·g·protein).

And the half-life at 0.1 μmol/L [1]?
Its half-life at 0.1 μmol/L is 16 min.

With CN1CC(=O)N2[C@H](c3ccc4c(c3)OCO4)c3[nH]c4ccccc4c3C[C@@H]2C1=O [tadalafil, reference compound] as the compound, how does the “mean pulmonary artery pressure (mPAP)” value [2] read?
Its value is “decreased”.

What about the “right ventricle hypertrophy index (RVHI%)” value [2] of the same compound?
Its value is “decreased”.

And the “wall thickness percentage (WT%)” value [2]?
The value was “decreased”.

Which IC50 [3] does the source give for Cc1ccc2c(c1)nc(/C=C/c1cccc3cccnc13)n2-c1cccc(OCCCN2CCN(C)CC2)c1.Cl [Compound 14·3HCl, (E)-8-(2-(5-Methyl-1-(3-(3-(4-methylpiperazin-1-yl)propoxy)phenyl)-1H-benzo[d]imidazole-2-yl)vinyl)quinoline hydrochloride] here?
The IC50 was over 10 µM.

And the Selectivity fold ([3]; IC50(PDE2A)/IC50(PDE10A2))?
The Selectivity fold was over 3500 fold.

And the IC50 [4]?
The IC50 was over 10 µM.

And the Selectivity fold ([4]; IC50(PDE5A1)/IC50(PDE10A2))?
The Selectivity fold was over 3500 fold.

And the IC50 [5]?
The IC50 was over 10 µM.

And the Selectivity fold ([5]; IC50(PDE7A1)/IC50(PDE10A2))?
The Selectivity fold was over 3500 fold.

What about the IC50 [6] of the same compound?
Its IC50 is over 10 µM.

And the Selectivity fold ([6]; IC50(PDE1B)/IC50(PDE10A2))?
Its Selectivity fold is over 3500 fold.

What about the selectivity ratio [7] of the same compound?
Its selectivity ratio is 1600.

And the “selectivity over other PDE subtypes” value ([8]; against other PDE families)?
Its value is over 3500 fold.

What about the “improvement of PAH medical indicators” value ([2]; 14·3HCl 2.5 mg/kg p.o. compared with tadalafil 5.0 mg/kg p.o.) of the same compound?
The value was “comparable to tadalafil; also recorded: significantly ameliorating these PAH medical indicators; also recorded: significantly improved typical disease medical indicators”.

And the “mean pulmonary artery pressure (mPAP)” value [2]?
The value was “decreased”.

And the “right ventricle hypertrophy index (RVHI%)” value [2]?
The value was “decreased”.

What about the “wall thickness percentage (WT%)” value [2] of the same compound?
The value was “decreased”.

And the IC50 [9]?
The IC50 was over 10 µM.

And the Selectivity fold ([9]; IC50(PDE9A2)/IC50(PDE10A2))?
The Selectivity fold was over 3500 fold.

And the IC50 [10]?
Its IC50 is over 10 µM.

What about the Selectivity fold ([10]; IC50(PDE3A)/IC50(PDE10A2)) of the same compound?
Its Selectivity fold is over 3500 fold.

What about the “CLint (intrinsic body clearance)” value [1] of the same compound?
The value was 85.1 mL/(min·g·protein).

And the half-life at 0.1 μmol/L [1]?
The half-life at 0.1 μmol/L was 25 min.

What about the “reactivity of C=C bridge with cysteine” value [11] of the same compound?
Its value is “insensitive to react with cysteine”.

What about the acute toxicity ([12]; oral administration) of the same compound?
Its acute toxicity is “no obvious acute toxicity”.

And the dose well tolerated ([12]; single oral dose)?
Its dose well tolerated is at most 1000 mg/kg.

And the IC50 [13]?
The IC50 was over 10 µM.

What about the Selectivity fold ([13]; IC50(PDE8A1)/IC50(PDE10A2)) of the same compound?
The Selectivity fold was over 3500 fold.

And the IC50 [14]?
The IC50 was over 10 µM.

And the Selectivity fold ([14]; IC50(PDE4D2)/IC50(PDE10A2))?
The Selectivity fold was over 3500 fold.

What about the AUC(0-inf) [15, 20] of the same compound?
The AUC(0-inf) was 1820 ± 297 ng·h/mL.

And the AUC(0-t) [15, 20]?
The AUC(0-t) was 1670 ± 184 ng·h/mL.

What about the Cmax [15, 20] of the same compound?
Its Cmax is 230 ± 50 ng/mL.

What about the MRT last [15, 20] of the same compound?
The MRT last was 378 ± 48 min.

What about the Tmax [15, 20] of the same compound?
Its Tmax is 24 ± 24 min.

And the clearance [15, 20]?
The clearance was 23.3 mL/min/kg.

And the half-life [15, 20]?
The half-life was 402 ± 90 min.

What about the AUC(0-inf) [15, 21] of the same compound?
Its AUC(0-inf) is 3550 ± 1010 ng·h/mL.

What about the AUC(0-t) [15, 21] of the same compound?
Its AUC(0-t) is 3310 ± 812 ng·h/mL.

What about the Cmax [15, 21] of the same compound?
Its Cmax is 272 ± 25 ng/mL.

What about the MRT last [15, 21] of the same compound?
Its MRT last is 504 ± 42 min.

And the Tmax [15, 21]?
Its Tmax is 360 ± 120 min.

What about the half-life [15, 21] of the same compound?
The half-life was 312 ± 54 min.

And the “bioavailability, fold higher than A” value ([15]; rats, oral)?
The value was about 20 fold.

What about the “safety margin between hERG IC50 and plasma peak concentration (Cmax)” value [16] of the same compound?
The value was 36 fold.

And the IC50 [17]?
Its IC50 is 4.5 µM.

And the solubility [18]?
Its solubility is 4700 µg/mL.

With Cc1ccc2c(c1)nc(/C=C/c1cccc3cccnc13)n2-c1cccc(S(=O)(=O)N2CCN(C)CC2)c1 [Compound 11, (E)-8-(2-(5-Methyl-1-(3-((4-methylpiperazin-1-yl)sulfonyl)phenyl)-1H-benzo[d]imidazole-2-yl)vinyl) quinoline] as the compound, how does the “CLint (intrinsic body clearance)” value [1] read?
The value was 1390 mL/(min·g·protein).

What about the half-life at 0.1 μmol/L [1] of the same compound?
Its half-life at 0.1 μmol/L is 1.5 min.

Which “enhancement of PDE10A inhibition relative to compound 2” value ([8]; C=C bond instead of C–C single bond) does the source give for Cc1ccc2c(c1)nc(/C=C/c1cccc3cccnc13)n2-c1ccccc1 [Compound 4, (E)-8-(2-(5-Methyl-1-phenyl-1H-benzo[d]imidazol-2-yl)vinyl)quinoline] here?
The value was 3 fold.

What about the half-life at 1.5 μmol/L [19] of the same compound?
The half-life at 1.5 μmol/L was 17.4 min.

Which results are given for Cc1ccc2c(c1)nc(/C=C/c1cccc3cccnc13)n2-c1cccc(CN2CCN(C)CC2)c1 [Compound 12, (E)-8-(2-(5-Methyl-1-(3-((4-methylpiperazin-1-yl)methyl)phenyl)-1H-benzo[d]imidazole-2-yl)vinyl) quinoline]?
CLint (intrinsic body clearance) [1]: 198.1 mL/(min·g·protein); half-life at 0.1 μmol/L [1]: 11 min
